# Data as given in patent publication US10273217B2, “Triazole derivatives” (Hoffmann-La Roche Inc., priority 2015, dated 2019).
# Columns and labels:
# [1] = molecular target: T1, human EAAT3 (Homo sapiens, UniProt P43005); test: FLIPR Membrane Potential (FMP) assay, antagonist potency at human EAAT3; type: cell-based; conditions: HEK-293 cells stably expressing human EAAT3; L-glutamate as agonist at EC80; Kb from IC50 by Cheng-Prusoff equation
# T1 construct: expressed in transfected cells
# T1 sequence (P43005 1-524): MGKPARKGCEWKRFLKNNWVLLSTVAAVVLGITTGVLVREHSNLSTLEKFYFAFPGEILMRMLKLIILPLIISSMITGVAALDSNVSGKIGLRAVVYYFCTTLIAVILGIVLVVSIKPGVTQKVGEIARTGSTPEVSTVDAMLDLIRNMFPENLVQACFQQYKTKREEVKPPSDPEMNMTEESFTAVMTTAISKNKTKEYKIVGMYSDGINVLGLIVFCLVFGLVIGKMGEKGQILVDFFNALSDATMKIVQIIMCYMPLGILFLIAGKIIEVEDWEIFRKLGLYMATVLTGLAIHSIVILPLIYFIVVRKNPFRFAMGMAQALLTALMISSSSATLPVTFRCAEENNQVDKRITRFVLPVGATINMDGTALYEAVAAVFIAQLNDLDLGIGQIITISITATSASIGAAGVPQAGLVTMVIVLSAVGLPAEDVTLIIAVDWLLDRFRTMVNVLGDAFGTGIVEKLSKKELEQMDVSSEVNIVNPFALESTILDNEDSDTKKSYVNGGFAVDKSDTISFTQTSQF
# Method: The FLIPR Membrane Potential (FMP) Assay
# HEK-293 cells stably expressing human EAAT3 were seeded at 55 000 cells/well in growth medium (DMEM glutamate free (Invitrogen 11960-044), 1% Pen Strep (10 ml/l GIBCO BRL N°15140-023), 10% FCS non dialysed heat inactivated, 5 mg/l puromycin) in poly-D-lysine treated 96-well black microtiter plates with clear-bottom. After 24 h, the growth medium was removed and 100 μl/well of Krebs buffer (140 mM NaCl, 4.7 mM KCl, 2.5 mM CaCl2, 1.2 mM MgCl2, 11 mM HEPES, 10 mM D-glucose, pH=7.4) added. The cells were then loaded by adding 100 μl/well FMP assay dye (FLIPR Membrane Potential assay reagent, Molecular Devices). The 96-well plates were then incubated at 37° C. for 1 h. The depolarization of the cells will cause more dye to enter in the cells, where it will bind to intracellular proteins and lipids and cause an increase in the fluorescence signal. Antagonist potency at human EAAT3 was determined by using L-glutamate as agonist at a concentration which gives 80% of the maximum response. The antagonists were applied 15 min before the application of the agonist L-glutamate. The assays were performed at room temperature and measurements done by using a Fluorometric Imaging Plate Reader (FLIPR, Molecular Devices) and filter #2. Responses were measured as peak increase in fluorescence minus basal (i.e. fluorescence without addition of L-glutamate). Kb was determined using the Cheng-Prusoff equation Kb=IC50/[1+(A/EC50)], where IC50 is the concentration of the antagonist producing 50% inhibition, A is the concentration of the agonist against which the IC50 is being determined (at EC80) and EC50 is the concentration of the agonist producing 50% […].
SMILES,Kb [1],melting point
"Cc1nncn1-c1cc(C(=O)NC(C)(C)C)cc(-c2ccc(F)cc2)c1 [Example 5, N-tert-Butyl-3-(4-fluorophenyl)-5-(3-methyl-1,2,4-triazol-4-yl)-benzamide]",160 nM,235.5 °C
"Cc1nncn1-c1cc(C(=O)NC(C)(C)C)cc(-c2ccc(C(F)(F)F)cc2)c1 [Example 7, N-tert-Butyl-3-(3-methyl-1,2,4-triazol-4-yl)-5-[4-(trifluoromethyl)-phenyl]-benzamide]",130 nM,225.5 °C
"Cc1nncn1-c1cc(C(=O)NC(C)(C)C)cc(-c2ccc(Cl)cc2)c1 [Example 6, N-tert-Butyl-3-(4-chlorophenyl)-5-(3-methyl-1,2,4-triazol-4-yl)-benzamide]",76 nM,241 °C
"CC(C)c1nncn1-c1cc(C(=O)NC(C)(C)C)cc(-c2ccc(Cl)cc2)c1 [Example 15, N-tert-Butyl-3-(4-chlorophenyl)-5-(3-propan-2-yl-1,2,4-triazol-4-yl)-benzamide]",75 nM,239.5 °C
"CCC(C)(C)NC(=O)c1cc(-c2ccc(C(F)(F)F)cc2)cc(-n2cnnc2C(C)C)c1 [Example 23, N-(2-Methylbutan-2-yl)-3-(3-propan-2-yl-1,2,4-triazol-4-yl)-5-[4-(trifluoromethyl)-phenyl]-benzamide]",94 nM,104 °C
"CC(C)c1nncn1-c1cc(C(=O)NC(C)(C)CO)cc(-c2ccc(C(F)(F)F)cc2)c1 [Example 22, N-(1-hydroxy-2-methylpropan-2-yl)-3-(3-propan-2-yl-1,2,4-triazol-4-yl)-5-[4-(trifluoromethyl)-phenyl]-benzamide]",330 nM,214 °C

# Second part, the molecule after the results:
Kb [1],melting point,SMILES
120 nM,103 °C,"CCC(C)(C)NC(=O)c1cc(-c2ccc(Cl)cc2)cc(-n2cnnc2C(C)C)c1 [Example 25, 3-(4-Chlorophenyl)-N-(2-methylbutan-2-yl)-5-(3-propan-2-yl-1,2,4-triazol-4-yl)-benzamide]"
98 nM,106 °C,"Cc1cc(-c2cc(C(=O)NC(C)(C)C)cc(-n3cnnc3C(C)C)c2)ccc1F [Example 31, N-tert-Butyl-3-(4-fluoro-3-methyl-phenyl)-5-(3-propan-2-yl-1,2,4-triazol-4-yl)-benzamide]"
290 nM,107 °C,"COc1ccc(-c2cc(C(=O)NC(C)(C)C)cc(-n3cnnc3C(C)C)c2)cc1 [Example 29, N-tert-Butyl-3-(4-methoxyphenyl)-5-(3-propan-2-yl-1,2,4-triazol-4-yl)-benzamide]"
120 nM,109 °C,"Cc1ccc(-c2cc(C(=O)NC(C)(C)C)cc(-n3cnnc3C(C)C)c2)cc1F [Example 32, N-tert-Butyl-3-(3-fluoro-4-methyl-phenyl)-5-(3-propan-2-yl-1,2,4-triazol-4-yl)-benzamide]"
